Assay type in all cases: in vivo
What all share (details): 5 mg/kg oral gavage

The target of one assay is MAGL (Mus musculus (Mouse), UniProt O35678). Kind of assay: Mouse brain proteomes from inhibitor treated mice (oral gavage, sacrifice 4 h after administration, ABPP analysis). The method, boiled down: (§1)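 Read-out is % inhibition at 5 mg/kg in brain proteomes profiled by activity-based protein profiling. Inhibitors were dosed orally to wild-type C57Bl/6J mice, with sacrifice at 4 h.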

A further assay addresses FAAH (Mus musculus (Mouse), UniProt O08914). Kind of assay: Mouse brain proteomes from inhibitor treated mice (oral gavage, sacrifice 4 h after administration, ABPP analysis), FAAH. The method, boiled down: as §1
The target of a further assay is ABHD6 (Mus musculus (Mouse), UniProt Q8R2Y0). Kind of assay: Mouse brain proteomes from inhibitor treated mice (oral gavage, sacrifice 4 h after administration, ABPP analysis), ABHD6. The procedure, abridged:
as §1

Each structure is given as a SMILES string.

Chain of FAAH (O08914 whole entry): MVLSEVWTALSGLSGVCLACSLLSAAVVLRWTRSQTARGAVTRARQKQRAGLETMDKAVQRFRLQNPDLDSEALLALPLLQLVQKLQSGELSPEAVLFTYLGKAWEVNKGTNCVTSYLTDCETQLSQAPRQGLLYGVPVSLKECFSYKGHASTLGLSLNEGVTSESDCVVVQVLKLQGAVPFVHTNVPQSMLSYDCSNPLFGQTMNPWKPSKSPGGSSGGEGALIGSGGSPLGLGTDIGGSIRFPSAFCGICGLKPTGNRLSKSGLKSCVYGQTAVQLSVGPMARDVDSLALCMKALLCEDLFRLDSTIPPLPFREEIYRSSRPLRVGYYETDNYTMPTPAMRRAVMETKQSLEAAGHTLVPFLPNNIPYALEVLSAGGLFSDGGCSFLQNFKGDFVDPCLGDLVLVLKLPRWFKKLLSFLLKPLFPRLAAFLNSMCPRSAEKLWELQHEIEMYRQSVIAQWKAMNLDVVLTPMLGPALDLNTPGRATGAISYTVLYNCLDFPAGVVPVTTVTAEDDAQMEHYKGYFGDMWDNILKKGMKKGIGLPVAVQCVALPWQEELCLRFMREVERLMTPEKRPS
Chain of MAGL (O35678 whole entry): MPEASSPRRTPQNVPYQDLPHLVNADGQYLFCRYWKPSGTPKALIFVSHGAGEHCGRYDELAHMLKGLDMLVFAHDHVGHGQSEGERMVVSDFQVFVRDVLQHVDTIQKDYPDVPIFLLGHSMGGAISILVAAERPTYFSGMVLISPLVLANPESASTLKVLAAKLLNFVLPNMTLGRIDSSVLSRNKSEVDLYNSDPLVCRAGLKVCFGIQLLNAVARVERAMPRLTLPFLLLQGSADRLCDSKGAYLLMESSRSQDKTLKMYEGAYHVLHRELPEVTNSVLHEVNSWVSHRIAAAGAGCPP
Chain of ABHD6 (Q8R2Y0 whole entry): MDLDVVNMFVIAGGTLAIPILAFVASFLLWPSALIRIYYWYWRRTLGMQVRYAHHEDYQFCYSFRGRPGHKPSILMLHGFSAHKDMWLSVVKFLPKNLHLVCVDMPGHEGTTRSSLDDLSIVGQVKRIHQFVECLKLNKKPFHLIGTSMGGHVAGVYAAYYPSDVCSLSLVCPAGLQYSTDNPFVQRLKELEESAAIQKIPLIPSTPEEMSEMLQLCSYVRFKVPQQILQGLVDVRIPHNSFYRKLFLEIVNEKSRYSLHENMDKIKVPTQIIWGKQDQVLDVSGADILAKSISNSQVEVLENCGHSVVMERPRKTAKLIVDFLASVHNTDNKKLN

In the case of `O=C(OC(C(F)(F)F)C(F)(F)F)N1CCC2(CCCN2Cc2ccc(N3CCCC3)c(C(F)(F)F)c2)CC1` [Example 130, 1,1,1,3,3,3-Hexafluoropropan-2-yl 1-(4-(pyrrolidin-1-yl)-3-(trifluoromethyl)benzyl)-1,8-diazaspiro[4.5]decane-8-carboxylate], at MAGL, the “MAGL % Inh 5 mg/kg (mouse)” value is listed as “### (### is ≥ 75%)”. At FAAH, the “FAAH % Inh 5 mg/kg (mouse)” value is recorded as “# (# is < 25%)”. Moreover, the “ABHD6 % Inh 5 mg/kg (mouse)” value at ABHD6 is on record as “# (# is < 25%)”.

For the molecule `CS(=O)(=O)NC1CCN(c2cc(Cl)ccc2CN2CCCC23CCN(C(=O)OC(C(F)(F)F)C(F)(F)F)CC3)CC1` [Example 105, 1,1,1,3,3,3-Hexafluoropropan-2-yl 1-(4-chloro-2-(4-(methylsulfonamido)piperidin-1-yl)benzyl)-1,8-diazaspiro[4.5]decane-8-carboxylate], the “MAGL % Inh 5 mg/kg (mouse)” value at MAGL was “# (# is < 25%)”. Also, the “FAAH % Inh 5 mg/kg (mouse)” value on FAAH is “# (# is < 25%)”. On ABHD6, the “ABHD6 % Inh 5 mg/kg (mouse)” value was “# (# is < 25%)”.

In the case of `O=C(OC(C(F)(F)F)C(F)(F)F)N1CCC2(CCCN2Cc2cc(OC(F)(F)F)cc(N3CCOCC3)c2)CC1` [Example 37, 1,1,1,3,3,3-Hexafluoropropan-2-yl 1-(3-morpholino-5-(trifluoromethoxy)benzyl)-1,8-diazaspiro[4.5]decane-8-carboxylate], the “MAGL % Inh 5 mg/kg (mouse)” value at MAGL is reported as “### (### is ≥ 75%)”. The “FAAH % Inh 5 mg/kg (mouse)” value on FAAH is listed as “# (# is < 25%)”. In addition, the “ABHD6 % Inh 5 mg/kg (mouse)” value at ABHD6 is “# (# is < 25%)”.

Take `O=C(OC(C(F)(F)F)C(F)(F)F)N1CCC2(CCCN2Cc2cc(Cl)cc(N3CCCC3)c2)CC1` [Example 34, 1,1,1,3,3,3-Hexafluoropropan-2-yl 1-(3-chloro-5-(pyrrolidin-1-yl)benzyl)-1,8-diazaspiro[4.5]decane-8-carboxylate]: on MAGL, the “MAGL % Inh 5 mg/kg (mouse)” value was “### (### is ≥ 75%)”. Moreover, the “FAAH % Inh 5 mg/kg (mouse)” value at FAAH is on record as “# (# is < 25%)”. Besides, the “ABHD6 % Inh 5 mg/kg (mouse)” value at ABHD6 is recorded as “# (# is < 25%)”.

For `O=C(OC(C(F)(F)F)C(F)(F)F)N1CCC2(CCCN2Cc2cc(Oc3nc4ccccc4s3)cc(C(F)(F)F)c2)CC1` [Example 172, 1,1,1,3,3,3-Hexafluoropropan-2-yl 1-(3-(benzo[d]thiazol-2-yloxy)-5-(trifluoromethyl)benzyl)-1,8-diazaspiro[4.5]decane-8-carboxylate], the “MAGL % Inh 5 mg/kg (mouse)” value at MAGL is on record as “# (# is < 25%)”. Also, the “FAAH % Inh 5 mg/kg (mouse)” value on FAAH is reported as “# (# is < 25%)”. Also, the “ABHD6 % Inh 5 mg/kg (mouse)” value on ABHD6 was “# (# is < 25%)”.

Turning to `O=C(OC(C(F)(F)F)C(F)(F)F)N1CCC2(CCCN2Cc2cccc(N3CCCC3)c2Cl)CC1` [Example 81, 1,1,1,3,3,3-Hexafluoropropan-2-yl 1-(2-chloro-3-(pyrrolidin-1-yl)benzyl)-1,8-diazaspiro[4.5]decane-8-carboxylate], the “MAGL % Inh 5 mg/kg (mouse)” value at MAGL is reported as “### (### is ≥ 75%)”. Also, at FAAH, the “FAAH % Inh 5 mg/kg (mouse)” value is given as “# (# is < 25%)”. Further, the “ABHD6 % Inh 5 mg/kg (mouse)” value on ABHD6 is given as “# (# is < 25%)”.

Take `CCc1cc(CN2CCC3(CCN(C(=O)OC(C(F)(F)F)C(F)(F)F)CC3)C2)ccc1F` [Example 152, 1,1,1,3,3,3-Hexafluoropropan-2-yl 2-(3-ethyl-4-fluorobenzyl)-2,8-diazaspiro[4.5]decane-8-carboxylate]: the “MAGL % Inh 5 mg/kg (mouse)” value on MAGL is reported as “### (### is ≥ 75%)”. Further, at FAAH, the “FAAH % Inh 5 mg/kg (mouse)” value is “# (# is < 25%)”. The “ABHD6 % Inh 5 mg/kg (mouse)” value at ABHD6 is listed as “### (### is ≥ 75%)”.

Turning to `O=C(OC(C(F)(F)F)C(F)(F)F)N1CCC2(CCCN2Cc2cccc(Cl)c2)CC1` [Example 61, 1,1,1,3,3,3-Hexafluoropropan-2-yl 1-(3-chlorobenzyl)-1,8-diazaspiro[4.5]decane-8-carboxylate], at MAGL, the “MAGL % Inh 5 mg/kg (mouse)” value is on record as “### (### is ≥ 75%)”. Also, the “FAAH % Inh 5 mg/kg (mouse)” value on FAAH is reported as “### (### is ≥ 75%)”. Besides, the “ABHD6 % Inh 5 mg/kg (mouse)” value on ABHD6 is reported as “# (# is < 25%)”.

Consider `O=C(OC(C(F)(F)F)C(F)(F)F)N1CCC2(CCCN2Cc2cc(N3CC4COCC4C3)cc(C(F)(F)F)c2)CC1` (stereo not drawn) [Example 46, 1,1,1,3,3,3-Hexafluoropropan-2-yl 1-(3-(tetrahydro-1H-furo[3,4-c]pyrrol-5(3H)-yl)-5-(trifluoromethyl)benzyl)-1,8-diazaspiro[4.5]decane-8-carboxylate], for which the “MAGL % Inh 5 mg/kg (mouse)” value on MAGL was “### (### is ≥ 75%)”. In addition, the “FAAH % Inh 5 mg/kg (mouse)” value on FAAH was “# (# is < 25%)”. In addition, the “ABHD6 % Inh 5 mg/kg (mouse)” value on ABHD6 is recorded as “# (# is < 25%)”.

For the molecule `O=C(O)C1CCN(c2cc(Cl)ccc2CN2CCCC23CCN(C(=O)OC(C(F)(F)F)C(F)(F)F)CC3)CC1` [Example 120, 1-(5-Chloro-2-((8-(((1,1,1,3,3,3-hexafluoropropan-2-yl)oxy)carbonyl)-1,8-diazaspiro[4.5]decan-1-yl)methyl)phenyl)piperidine-4-carboxylic acid], the “MAGL % Inh 5 mg/kg (mouse)” value on MAGL is listed as “### (### is ≥ 75%)”. Moreover, on FAAH, the “FAAH % Inh 5 mg/kg (mouse)” value is on record as “# (# is < 25%)”. In addition, the “ABHD6 % Inh 5 mg/kg (mouse)” value at ABHD6 is “# (# is < 25%)”.

`O=C(O)C1CCN(c2cc(OC(F)(F)F)ccc2CN2CCCC23CCN(C(=O)OC(C(F)(F)F)C(F)(F)F)CC3)CC1` [Example 248]: the “MAGL % Inh 5 mg/kg (mouse)” value at MAGL was “### (### is ≥ 75%)”. At FAAH, the “FAAH % Inh 5 mg/kg (mouse)” value is “# (# is < 25%)”. On ABHD6, the “ABHD6 % Inh 5 mg/kg (mouse)” value is on record as “# (# is < 25%)”.

For `O=C(OC(C(F)(F)F)C(F)(F)F)N1CCC2(CCCN2Cc2ccc(Cl)cc2N2CC3COCC3C2)CC1` (stereo not drawn) [Example 108, 1,1,1,3,3,3-Hexafluoropropan-2-yl 1-(4-chloro-2-(tetrahydro-1H-furo[3,4-c]pyrrol-5(3H)-yl)benzyl)-1,8-diazaspiro[4.5]decane-8-carboxylate], the “MAGL % Inh 5 mg/kg (mouse)” value at MAGL was “### (### is ≥ 75%)”. For the same molecule, at FAAH, the “FAAH % Inh 5 mg/kg (mouse)” value is on record as “# (# is < 25%)”. The “ABHD6 % Inh 5 mg/kg (mouse)” value on ABHD6 is reported as “# (# is < 25%)”.

In the case of `O=C(OC(C(F)(F)F)C(F)(F)F)N1CCC2(CCCN2Cc2ccc(C(F)(F)F)c(N3CCCC3)c2)CC1` [Example 134, 1,1,1,3,3,3-Hexafluoropropan-2-yl 1-(3-(pyrrolidin-1-yl)-4-(trifluoromethyl)benzyl)-1,8-diazaspiro[4.5]decane-8-carboxylate], the “MAGL % Inh 5 mg/kg (mouse)” value at MAGL is listed as “### (### is ≥ 75%)”. For the same molecule, the “FAAH % Inh 5 mg/kg (mouse)” value at FAAH is on record as “# (# is < 25%)”. For the same molecule, on ABHD6, the “ABHD6 % Inh 5 mg/kg (mouse)” value is “# (# is < 25%)”.

Take `CC1(C(=O)O)CN(c2cc(C(F)(F)F)ccc2CN2CCC3(CCN(C(=O)OC(C(F)(F)F)C(F)(F)F)CC3)C2)CCO1` (stereo not drawn) [Example 256]: the “MAGL % Inh 5 mg/kg (mouse)” value on MAGL is reported as “# (# is < 25%)”. On FAAH, the “FAAH % Inh 5 mg/kg (mouse)” value is on record as “# (# is < 25%)”. Besides, the “ABHD6 % Inh 5 mg/kg (mouse)” value on ABHD6 is “# (# is < 25%)”.

`O=C(OC(C(F)(F)F)C(F)(F)F)N1CCC2(CCCN2Cc2ccc(C(F)(F)F)c(N3CCOCC3)c2)CC1` [Example 133, 1,1,1,3,3,3-Hexafluoropropan-2-yl 1-(3-morpholino-4-(trifluoromethyl)benzyl)-1,8-diazaspiro[4.5]decane-8-carboxylate]: the “MAGL % Inh 5 mg/kg (mouse)” value on MAGL is on record as “### (### is ≥ 75%)”. The “FAAH % Inh 5 mg/kg (mouse)” value on FAAH is listed as “# (# is < 25%)”. Also, the “ABHD6 % Inh 5 mg/kg (mouse)” value on ABHD6 is recorded as “# (# is < 25%)”.

Source of the values: patent publication US10781211B2, “Spirocycle compounds and methods of making and using same” (Lundbeck La Jolla Research Center, Inc., priority 2016, dated 2020).
